According to publication PMC12467033, “Exploring the Inhibitory Potential of Six Porphyrin Compounds Against α-Amylase and α-Glucosidase Linked to Diabetes” (Biomolecules, 2025):

How the values were obtained:
α-glucosidase [1] = biological target: T1, α-glucosidase (Saccharomyces cerevisiae, UniProt P53341); assay: α-Glucosidase inhibitory activity assay (pNPG substrate); assay type: biochemical; conditions: 37 °C
Method: The experimental groups were supplemented with different concentrations of porphyrin compounds, followed by the addition of 100 μL of 5 mmol/L pNPG. After thorough mixing, the samples were pre-incubated at 37 °C for 10 min. Subsequently, the reaction was terminated by adding 0.1 mol/L of sodium carbonate (Na2CO3) solution. Following a 3 min reaction period, the absorbance of the solutions at 405 nm was measured using a microplate reader. The inhibition rate (%) was subsequently calculated using Formula (1).
Using the enzyme inhibition rate as the y-axis and the inhibitor concentration as the x-axis, the IC50 value was calculated through linear regression fitting with GraphPad Prism software (5.0).

α-amylase [2] = biological target: T2, α-amylase (Sus scrofa, UniProt P00690); assay: In vitro stability study (temperature, pH), inhibition rate against α-amylase; assay type: physicochemical; conditions: water bath 30–100 °C, 20 min
T2 sequence (P00690 16-511): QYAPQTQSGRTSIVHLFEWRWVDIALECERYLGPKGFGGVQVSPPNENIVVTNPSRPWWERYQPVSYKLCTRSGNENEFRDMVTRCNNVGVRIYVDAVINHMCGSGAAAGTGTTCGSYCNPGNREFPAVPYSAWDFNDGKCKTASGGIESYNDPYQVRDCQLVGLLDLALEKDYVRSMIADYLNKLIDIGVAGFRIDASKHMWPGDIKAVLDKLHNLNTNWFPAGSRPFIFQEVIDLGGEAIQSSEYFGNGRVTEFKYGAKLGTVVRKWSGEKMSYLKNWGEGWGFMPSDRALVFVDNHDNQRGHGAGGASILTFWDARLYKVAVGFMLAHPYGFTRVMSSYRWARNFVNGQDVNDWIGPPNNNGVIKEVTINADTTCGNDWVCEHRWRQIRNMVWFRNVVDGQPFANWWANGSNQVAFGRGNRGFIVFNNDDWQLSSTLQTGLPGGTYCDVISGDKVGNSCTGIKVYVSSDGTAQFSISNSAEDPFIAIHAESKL
Method: (§1) Samples of a certain mass concentration were subjected to a water bath at different temperatures (30, 40, 50, 60, 70, 80, 90, 100 °C) for 20 min and treated under different pH conditions (2.0, 3.0, 4.0, 5.0, 6.0, 7.0, 8.0, 9.0, and 10.0) for 20 min to determine the effect of temperature and pH on the stability of the two enzymes.

α-glucosidase [3] = biological target: T1, α-glucosidase; assay: In vitro stability study (temperature, pH), inhibition rate against α-glucosidase; assay type: physicochemical; conditions: water bath 30–100 °C, 20 min
Method: as §1

α-amylase [4] = biological target: T2, α-amylase; assay: Fluorescence quenching, binding and thermodynamics with α-amylase; conditions: for quenching mechanism of α-amylase fluorescence: Stern–Volmer plots; for ΔH^0 / ΔS^0: Van’t Hoff
Text: In the α-amylase experiment, a series of porphyrins and amylase (200 U/L) were mixed in a volume ratio of 1:1.
The Stern–Volmer equation [35] was adopted to determine the quenching mechanisms between six porphyrin compounds and both enzymes in the experimental group, with Formula (6):(6) F0/F=1+Ksv[Q]=1+Kqτ0[Q]
The Stern–Volmer equation was adapted based on experimental data to more accurately characterize the quenching behavior [36], with Formula (7):(7) F0/F=e^Ksv[Q]=e^Kqτ0[Q]
In the formula, the fluorescence quenching ratio was calculated as F0/F, where F0 corresponds to the emission intensity of pure α-amylase solution (control) and F denotes the intensity measured after the incremental addition of porphyrin ligands. KSV and Kq denote the Stern–Volmer quenching constant and the bimolecular quenching rate constant, respectively, τ0 (10^−8 s) is the average fluorescence lifetime of the fluorophore in the absence of quencher, and [Q] indicates the concentration of porphyrin compounds.
Due to the presence of an internal filtration effect, a decrease in the fluorescence intensity of the system may occur. Therefore, all fluorescence data were corrected using Formula (8) to eliminate the internal filtration effect.(8) Fcor=Fobse^(Aex+Aem)/2
The evaluation of the interaction forces between porphyrin compounds and the two enzymes can be achieved by calculating thermodynamic parameters. When both ΔH^0 and ΔS^0 are positive, the predominant interaction force is hydrophobic. When both ΔH^0 and ΔS^0 are negative, the main forces are hydrogen bonding and van der Waals forces. When ΔH^0 < 0 and ΔS^0 > 0, the primary interaction is electrostatic attraction.
The thermodynamic parameters were calculated using Formulas (9) and (10), and then the Van’t Hoff plot for the interactions between the porphyrin compounds and the two enzymes was generated by plotting lnKa on the Y-axis versus 1/T on the X-axis.(9) lnKa=−ΔH^0/RT+ΔS^0/R (10) ΔG^0=ΔH^0−TΔS^0=−RTlnKa

HepG2 cells = assay: MTT cytotoxicity assay; assay type: cell-based, human; conditions: 24 h
Method: The cytotoxicity of six porphyrin compounds against human hepatocellular carcinoma HepG2 cells was evaluated using the MTT assay. HepG2 cells were seeded into 96-well plates at a density of 5000 cells per well and cultured for 24 h at 37 °C in a 5% CO2 incubator. Then, 100 µL of sample solutions at various concentrations (50, 100, and 200 µg/mL) was added to the experimental wells, with blank control wells and solvent control wells also included. The cells were further incubated for 24 h. After incubation, 10 µL of MTT solution (5 mg/mL) was added to each well, and the plates were incubated for another 4 h. Subsequently, 100 µL of Formazan solubilization solution was added to each well, followed by gentle mixing. The plates were returned to the incubator and maintained until complete dissolution of Formazan crystals was observed under a microscope. The absorbance at 570 nm was measured using a microplate reader (Meigu Molecular Instrument Company, Shanghai, China), and the survival rate of HepG2 cells was calculated.(12) Cell viability=As-Ab/Ac-Ab×100%
In the formula, As represents the absorbance of the sample well, Ac denotes the absorbance of the blank control well (without the drug), and Ab refers to the absorbance of the solvent control well (devoid of both cells and the drug).

T1 sequence (P53341 whole entry): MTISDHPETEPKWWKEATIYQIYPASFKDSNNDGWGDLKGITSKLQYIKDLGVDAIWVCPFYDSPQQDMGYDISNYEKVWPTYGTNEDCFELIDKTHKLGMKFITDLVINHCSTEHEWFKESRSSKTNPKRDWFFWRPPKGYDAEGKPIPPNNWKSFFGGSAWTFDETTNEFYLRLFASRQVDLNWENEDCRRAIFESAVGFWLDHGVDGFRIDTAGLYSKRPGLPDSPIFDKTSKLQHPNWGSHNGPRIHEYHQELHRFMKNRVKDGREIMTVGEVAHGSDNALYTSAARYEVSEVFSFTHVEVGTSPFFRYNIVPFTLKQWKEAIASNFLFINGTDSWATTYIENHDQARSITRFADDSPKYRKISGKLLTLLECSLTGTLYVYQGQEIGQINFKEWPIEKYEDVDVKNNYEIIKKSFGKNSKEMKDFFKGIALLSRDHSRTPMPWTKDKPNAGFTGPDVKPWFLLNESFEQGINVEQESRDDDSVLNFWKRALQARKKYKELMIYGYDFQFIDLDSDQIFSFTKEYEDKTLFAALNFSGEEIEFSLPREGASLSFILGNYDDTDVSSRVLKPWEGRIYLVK

Row | Molecule | IC50 α-GLU (α-glucosidase [1]) [µg/mL] | thermal stability: inhibition rate against α-amylase (α-amylase [2]) | thermal stability: inhibition rate against α-glucosidase (α-glucosidase [3]) | quenching mechanism of α-amylase fluorescence (α-amylase [4]; 298–310 K) | Ka (binding constant) (α-amylase [4]; T 298 K) | Kq (α-amylase [4]; T 298 K) | Ksv (α-amylase [4]; T 298 K) | n (number of binding sites) (α-amylase [4]; T 298 K) | ΔG^0 (α-amylase [4]; T 298 K) [kcal/mol] | Ka (binding constant) (α-amylase [4]; T 304 K) | Kq (α-amylase [4]; T 304 K) | Ksv (α-amylase [4]; T 304 K) | n (number of binding sites) (α-amylase [4]; T 304 K) | ΔG^0 (α-amylase [4]; T 304 K) [kcal/mol] | Kq (α-amylase [4]; T 310 K) | Ksv (α-amylase [4]; T 310 K) | n (number of binding sites) (α-amylase [4]; T 310 K) | ΔG^0 (α-amylase [4]; T 310 K) [kcal/mol] | ΔH^0 (α-amylase [4]; 298–310 K) [kcal/mol] | ΔS^0 (α-amylase [4]; 298–310 K) [J/mol/k] | also measured
1 | O=C(O)c1ccc(-c2c3nc(c(-c4ccc(C(=O)O)cc4)c4ccc([nH]4)c(-c4ccc(C(=O)O)cc4)c4nc(c(-c5ccc(C(=O)O)cc5)c5ccc2[nH]5)C=C4)C=C3)cc1.[Cu+2] [Cu–TCPP, copper (II) meso-tetra (4-carboxyphenyl)porphyrin] | 25.33 ± 0.55 | small fluctuations | remained relatively stable | pure static quenching | 0.20 ± 0.01 ×10^5 L/mol | 4.37 ± 0.07 ×10^12 L/mol/s | 4.37 ± 0.07 ×10^4 L/mol | 0.93 | -5.868 ± 0.012 | 0.10 ± 0.01 ×10^5 L/mol | 4.33 ± 0.03 ×10^12 L/mol/s | 4.33 ± 0.03 ×10^4 L/mol | 0.84 | -5.566 ± 0.0072 | 4.32 ± 0.02 ×10^12 L/mol/s | 4.32 ± 0.02 ×10^4 L/mol | 0.78 | -5.337 ± 0.012 | -19.04 ± 0.017 | −185.16 ± 0.05 | Ka (α-amylase [4]; 298–310 K): 10^3–10^4 L/mol; Ka (binding constant) (α-amylase [4]; T 310 K): 0.06 ± 0.01 ×10^5 L/mol; cell viability (survival rate) (HepG2 cells; HepG2, 200 μg/mL): 43.13 ± 5.53%; cell viability (HepG2 cells; HepG2, 50–100 μg/mL): above 80%
2 | Oc1ccc(-c2c3nc(c(-c4ccc(O)cc4)c4ccc([nH]4)c(-c4ccc(O)cc4)c4nc(c(-c5ccc(O)cc5)c5ccc2[nH]5)C=C4)C=C3)cc1 [THPP] | – | small fluctuations | remained relatively stable | pure static quenching | – | 8.90 ± 0.06 ×10^12 L/mol/s | 8.90 ± 0.06 ×10^4 L/mol | 1.19 | -7.844 ± 0.019 | – | 8.20 ± 0.02 ×10^12 L/mol/s | 8.20 ± 0.02 ×10^4 L/mol | 1.16 | -7.737 ± 0.019 | 7.64 ± 0.07 ×10^12 L/mol/s | 7.64 ± 0.07 ×10^4 L/mol | 1.12 | -7.646 ± 0.017 | -12.73 ± 0.012 | −68.61 ± 0.06 | cytotoxicity (in words) (HepG2 cells; HepG2, 50–200 μg/mL): certain cytotoxic effects
3 | iron (III) meso-tetra (4-carboxyphenyl) porphyrin chloride [Fe–TCPP] | 23.93 ± 0.53 | small fluctuations | remained relatively stable | mixed quenching | 944.30 ± 0.18 ×10^5 L/mol | 4.32 ± 0.06 ×10^12 L/mol/s | 4.32 ± 0.06 ×10^4 L/mol | 1.65 | -10.87 ± 0.017 | 40.38 ± 0.09 ×10^5 L/mol | 3.36 ± 0.06 ×10^12 L/mol/s | 3.36 ± 0.06 ×10^4 L/mol | 1.38 | -9.19 ± 0.014 | 3.29 ± 0.08 ×10^12 L/mol/s | 3.29 ± 0.08 ×10^4 L/mol | 1.05 | -7.557 ± 0.019 | -93.248 ± 0.0406 | −1156.68 ± 0.13 | Ka (binding constant) (α-amylase [4]; T 310 K): 2.13 ± 0.05 ×10^5 L/mol
4 | Nc1ccc(-c2c3nc(c(-c4ccc(N)cc4)c4ccc([nH]4)c(-c4ccc(N)cc4)c4nc(c(-c5ccc(N)cc5)c5ccc2[nH]5)C=C4)C=C3)cc1 [TAPP] | – | – | – | pure static quenching | – | 4.07 ± 0.05 ×10^12 L/mol/s | 4.07 ± 0.05 ×10^4 L/mol | 1.48 | -9.168 ± 0.0263 | – | 3.37 ± 0.02 ×10^12 L/mol/s | 3.37 ± 0.02 ×10^4 L/mol | 1.40 | -8.817 ± 0.0287 | 3.07 ± 0.09 ×10^12 L/mol/s | 3.07 ± 0.09 ×10^4 L/mol | 1.31 | -8.329 ± 0.0239 | -29.935 ± 0.0287 | −291.29 ± 0.12 | –
5 | O=C(O)c1ccc(-c2c3nc(c(-c4ccc(C(=O)O)cc4)c4ccc([nH]4)c(-c4ccc(C(=O)O)cc4)c4nc(c(-c5ccc(C(=O)O)cc5)c5ccc2[nH]5)C=C4)C=C3)cc1 [TCPP] | – | small fluctuations | remained relatively stable | pure static quenching | – | 4.04 ± 0.01 ×10^12 L/mol/s | 4.04 ± 0.01 ×10^4 L/mol | 1.36 | -8.315 ± 0.022 | – | 3.55 ± 0.08 ×10^12 L/mol/s | 3.55 ± 0.08 ×10^4 L/mol | 1.28 | -7.928 ± 0.017 | 3.01 ± 0.07 ×10^12 L/mol/s | 3.01 ± 0.07 ×10^4 L/mol | 1.20 | -7.572 ± 0.017 | -26.778 ± 0.014 | −259.31 ± 0.09 | –
